Here are results for one molecule from article PMC9765450, “Structures of Fission Yeast Inositol Pyrophosphate Kinase Asp1 in Ligand-Free, Substrate-Bound, and Product-Bound States” (mBio, 2022).

For this test, the target named is T1, Asp1-(1-385) kinase domain (Schizosaccharomyces pombe, UniProt O74429, E248Q).
T1 construct: N-terminal kinase domain, residues 1-385
Description: PAGE kinase assay, toluidine blue staining. The test is classed as biochemical. As to conditions: 2 mM GTP, 0.5 mM 5-IP7, 5 mM MgCl2, pH 6.2, 37 °C; phosphate donor.

Each structure is given as a SMILES string.

Take `Nc1nc2c(ncn2[C@@H]2O[C@H](COP(=O)(O)OP(=O)(O)OP(=O)(O)O)[C@@H](O)[C@H]2O)c(=O)[nH]1` [GTP]: the “PAGE kinase assay, toluidine blue staining” value is listed as “elicited a gain of function whereby GTP was enabled as a phosphate donor”.
